Data taken from US6410588B1, “Use of cannabinoids as anti-inflammatory agents” (priority 1998, dated 2002).
“Also recorded” adds a separate entry of the source.

What was measured:
[1] = tested on: IL-1; settings: cited from earlier work
[2] = tested on: spleen cells (splenocytes); assay: mitogen-induced cell proliferation of spleen cells; assay type: cell-based, mouse (BALB/c, C57BL/6)
Description: Cultures were pulsed with ^3H-thymidine and harvested 6 hours later.
Female mice (aged 8-12 weeks) of strains C57BL/6 (B6, H-2^b) and BALB/c (H-2^d) were purchased from Harlan, Jerusalem, and maintained under specific pathogen-free (SPF) conditions in the animal facilities of the Hebrew University Medical School, Jerusalem, in accordance with the Hebrew University guidelines, DMEM (Biological Industries, Beit Haemek. Israel) was supplemented with 1 mM sodium pyruvate, 10 mM HEPES buffer, 0.5 mM asparagine-HCl, 0.03 mM filic acid, 0.5 mM L-aspartic acid, 5×10^−5M 2-mercaptoethanol, 2 mM glutamine, antibotics and 10% FCS (complete DMEM).
Spleen cells, at a final concentration of 5×10^6 cells/ml, were cultured in triplicate wells of flat-bottom microtiter plates (Nunc, Denmark) in medium alone, 2.5 μg/ml concanavalin A (ConA. Biomakor, Israel) or 50 μ/ml lipopolysaccharide (LPS, Difco). The final volume was 200 μl/well. Following two days of incubation at 37° C., in an 8% CO2-in-air incubator (as in all other procedures described here), 1 μCi of ^3H-thymidine was added to each well. Cells were harvested 6 h later, with a Tomtec (USA) cell harvester and counted in a MicroBeta scintillation counter (Wallac, Finland).

[3] = tested on: nitric oxide (NO); settings: macrophages activated by LPS and IFNγ; cited from earlier work
[4] = tested on: IFNγ production; assay: IFNγ release by PHA-stimulated human PBMC; assay type: cell-based; settings: PHA 5 μg/ml 72 hours, mean ± SEM
Description: (§1) CBD was dissolved in ethanol/DMSO.
(§2) Peripheral blood mononuclear cells (PBMC) were isolated from the whole blood of healthy donors by Ficoll Hypaque gradient. […] After this 6 hour pretreatment period, the cells were stimulated with either LPS from Salmonella typhimirium, 10 ng/ml, for 24 hours (for TNF and IL-1β) or with PHA, 5 μg/ml, for 72 hours (for IFNγ) Viability of the PBMC was assessed with the MTT test.
(§3) Human PBMC were cultured and stimulated with or without CBD, as described in Materials and Methods. The stimulus for TNF and IL-1 production was LPS, the stimulus for IFNγ production was PHA. The results are the mean of triplicate wells±SEM. ND=not done.

[5] = tested on: TNFα release; assay: spontaneous TNF release by murine synovial cells from arthritic mice; assay type: cell-based, mouse (DBA/1); settings: for O.D. (cytotoxicity assay for TNF) / TNF: supernatants after 24 h
Description: DBA/1 mice which had been immunized with bovine CII in CFA, to induce CIA, as discussed above, were sacrificed at day 10 of arthritis and the knee joints were removed. Synovial cell cultures were performed as previously described. Briefly, synovial membranes were excised under a dissecting microscope and digested with collagenase A (1 mg/ml) (Boehringer-Mannheim) and DNAase type IV (0.15 mg/ml) (Sigma, Dorset, UK) at 37° C. for 20 minutes, in. the presence of polymyxin B (33 μg/ml) (Sigma). […] Supernatants were collected after 24 h. and stored at −20° C. until measured for cytokines.
Well cytotoxicity assay was used.

[6] = tested on: TNF; assay: human rheumatoid synovial cell TNF production (ELISA); assay type: cell-based; settings: for TNF, mean: 48 hours culture
Description: (§4) Synovial membrane tissue was obtained from a patient fulfilling the revised American College of Rheumatology criteria for rheumatoid arthritis who underwent joint replacement surgery. Synovial cell cultures were prepared as described. Briefly, synovial membrane tissue was digested with collagenase type A (1 mg/ml) and DNAase I (0.15 mg/ml) in RPMI 1640 containing 5% FCS for 2 hours at 37° C.
(§5) Similarly, rheumatoid synovial cells spontaneously produce cytokines when cultured in vitro. […] With restricted number of human synovial cells in this sample, the optimal dose for inhibiting TNFα may have been missed.

[7] = tested on: anticonvulsant effects; settings: in vivo; cited from earlier work
[8] = tested on: collagen induced arthritis (CIA); assay: acute CIA model, oral feeding of CBD; assay type: in vivo, mouse; settings: 10 days
Description: The drug was administered by oral gavage. Control mice were fed vehicle (olive oil) along, as described in Materials and Methods. Results are expressed as a mean+/−SEM.
The doses used were 10 mg/kag, 25 mg/kg and 50 mg/kg (n=6 per group), corresponding to 2, 5, and 10 mg/kg i.p. respectively. Control mice were fed olive oil (n=6).

[9] = tested on: IL-8; assay: human rheumatoid synovial cell IL-8 production (ELISA); assay type: cell-based; settings: for IL-8, mean: 48 hours culture
Description: as §4, §5

[10] = tested on: chronic CIA; assay: chronic CIA model (mouse CII), CBD i.p.; assay type: in vivo; settings: 5 weeks
Description: Results are expressed as a mean of 6 mice. The AUC for the control group is 38.4, and for the 5 mg/kg group 28.9.
For the chronic experiments, 6 weeks old mice were immunized with mouse CII (100 μg CII i.d.=intradermal). From day 30 after immunization onwards, the mice developed a chronic relapsing arthritis, which was monitored for 5 weeks, in the same way as described above.
For the chronic experiment with mouse CII, mice were treated from the first symptoms of arthritis every other day, for 5 weeks. […] Again, mice injected with Vehicle alone served as controls (n=7). For the oral route, the treatment was administered daily at a dose of 25 mg/kg (n=6) and control mice were fed olive oil (n=6).

[11] = tested on: TNFα; settings: cited from earlier work
[12] = tested on: TNFα release; assay: TNFα release by LPS-stimulated human PBMC; assay type: cell-based; settings: for TNF α: LPS 10 ng/ml 24 hours
Description: as §1, §2, §3

Compound: C=C(C)[C@@H]1CCC(C)=C[C@H]1c1c(O)cc(CCCCC)cc1O [CBD, Cannabidiol]
- IL-1 production [1]: decreased
- response of splenocytes to Concanavalin A (ConA) and LPS (3H-thymidine) ([2]; BALB/C splenocytes): decreases the response
- response of splenocytes to Concanavalin A (ConA) and LPS (3H-thymidine) ([2]; C57BL/6 splenocytes): decreases the response
- nitric oxide (NO) production [3]: inhibited
- IFNγ ([4]; CBD 0.1 μg/ml): 2062 ± 316 pg/mL
- IFNγ ([4]; CBD 1 μg/ml): 1082 ± 75 pg/mL
- IFNγ ([4]; CBD 2.5 μg/ml): 1171 ± 138 pg/mL
- IFNγ ([4]; CBD 5 μg/ml): 791 ± 43 pg/mL
- IFNγ ([4]; CBD 10 μg/ml): 150 ± 43 pg/mL
- O.D. (cytotoxicity assay for TNF) ([5]; CBD 1 μg/ml): 0.190 ± 0.003
- TNF ([5]; CBD 1 μg/ml): >1000 pg/mL
- O.D. (cytotoxicity assay for TNF) ([5]; CBD 2.5 μg/ml): 0.193 ± 0.004
- TNF ([5]; CBD 2.5 μg/ml): >1000 pg/mL
- O.D. (cytotoxicity assay for TNF) ([5]; CBD 5 μg/ml): 0.422 ± 0.251
- TNF ([5]; CBD 5 μg/ml): 100 pg/mL
- O.D. (cytotoxicity assay for TNF) ([5]; CBD 10 μg/ml): 0.922 ± 0.103
- TNF ([5]; CBD 10 μg/ml): 2 pg/mL
- TNF ([5]; CBD 20 μg/ml): <0.01 pg/mL
- O.D. (cytotoxicity assay for TNF) ([5]; CBD 50 μg/ml): 1.163 ± 0.119
- TNF ([5]; CBD 50 μg/ml): <0.01 pg/mL
- spontaneous TNF release (in words) ([5]; CBD added to in vitro cultures): dose-dependent suppression of TNF release
- TNF, mean ([6]; CBD 0.1 μg/ml): 1963 pg/mL
- TNF, mean ([6]; CBD 1 μg/ml): 2089 pg/mL
- TNF, mean ([6]; CBD 20 μg/ml): 2271 pg/mL
- TNFa release (in words) ([6]; first initial experiment): not suppressed
- anticonvulsant effects [7]: anticonvulsant effects
- suppression of arthritis (in words) ([8]; 25 mg/kg daily oral gavage): significantly better than the control group; also recorded: optimal dose
- suppression of arthritis (in words) ([8]; daily oral gavage after onset of arthritis): adequate suppression of the arthritis
- IL-8 release (in words) [9]: dose-dependent inhibition
- IL-8, mean ([9]; CBD 0.1 μg/ml): 174 ng/mL
- IL-8, mean ([9]; CBD 1 μg/ml): 183 ng/mL
- IL-8, mean ([9]; CBD 20 μg/ml): 87 ng/mL
- suppression of chronic arthritis (in words) ([10]; 5 mg/kg i.p.): optimal in suppressing the arthritis
- area under the curve (AUC) of arthritis score ([10]; 5 mg/kg i.p., control group 38.4): 28.9
- suppression of chronic arthritis (in words) ([10]; 10 mg/kg i.p.): less effective than 5 mg/kg
- TNFα production [11]: decreased
- TNF α ([12]; CBD 0.1 μg/ml, mean of triplicate wells ± SEM): 2959 ± 434 pg/mL
- TNF α ([12]; CBD 1 μg/ml, mean ± SEM): 2503 ± 181 pg/mL
- TNF α ([12]; CBD 2.5 μg/ml, mean ± SEM): 3071 ± 296 pg/mL
- TNF α ([12]; CBD 5 μg/ml, mean ± SEM): 4152 ± 499 pg/mL
- TNF α ([12]; CBD 10 μg/ml, mean ± SEM): 10,964 ± 1714 pg/ml
- TNF α ([12]; CBD 20 μg/ml, mean ± SEM): 15,071 ± 2594 pg/ml
- TNF α ([12]; CBD 30 μg/ml, mean ± SEM): 20,824 ± 1046 pg/ml
- effect on LPS-induced TNFα release (in words) ([12]; higher concentrations of CBD): increased their release
- effect on LPS-induced TNFα release (in words) ([12]; lower concentrations of CBD (0.1 to 5 μg/ml)): significantly suppressed
